Experimental data published in ChEMBL document CHEMBL1165963, “Bryonolic acid: a large-scale isolation and evaluation of heme oxygenase 1 expression in activated macrophages” (2010).
Activity calls are given as the source filed them. The calls are words filed in the database; no cut-off is given here.

Columns and labels:
RAW264.7 [1] = test: Immunomodulatory effect in LPS-stimulated mouse RAW264.7 cells assessed as increase in heme oxygenase 1 expression at 50 uM after 24 hrs by Western blot relative to LPS; assay type: functional
RAW264.7 [2] = test: Effect on COX2 expression in mouse RAW264.7 cells after 24 hrs by Western blot; assay type: functional, cell-based
RAW264.7 [3] = test: Immunomodulatory effect in LPS-stimulated mouse RAW264.7 cells assessed as increase in heme oxygenase 1 expression at 100 uM after 24 hrs by Western blot relative to untreated control; assay type: functional
RAW264.7 [4] = test: Effect on iNOS expression in mouse RAW264.7 cells after 24 hrs by Western blot; assay type: functional, cell-based
RAW264.7 [5] = test: Immunomodulatory effect in LPS-stimulated mouse RAW264.7 cells assessed as increase in heme oxygenase 1 expression at 100 uM after 24 hrs by Western blot relative to LPS; assay type: functional
RAW264.7 [6] = test: Immunomodulatory effect in LPS-stimulated mouse RAW264.7 cells assessed as increase in heme oxygenase 1 expression at 50 uM after 24 hrs by Western blot relative to untreated control; assay type: functional
RAW264.7 [7] = test: Immunomodulatory effect in LPS-stimulated mouse RAW264.7 cells assessed as increase in heme oxygenase 1 expression after 24 hrs by Western blot; assay type: functional, cell-based

CC1(C)[C@@H](O)CC[C@]2(C)C3=C(CC[C@@H]12)[C@@]1(C)CC[C@@]2(C)CC[C@@](C)(C(=O)O)C[C@H]2[C@]1(C)CC3 [BRYONOLIC ACID]
fold change (FC) (RAW264.7 [1]): 3.3
Activity (RAW264.7 [2]): inactive
fold change (FC) (RAW264.7 [3]): 55
Activity (RAW264.7 [4]): inactive
fold change (FC) (RAW264.7 [5]): 14
fold change (FC) (RAW264.7 [6]): 13
Activity (RAW264.7 [7]): Dose-dependent effect
